In ChEMBL document CHEMBL4393659, “Insights into the chemistry and therapeutic potential of furanones: A versatile pharmacophore” (Eur J Med Chem, 2019):
In brackets after ≈: the same amount, converted by molar mass.

Tests used:
Rattus norvegicus [1] = experiment: Antiinflammatory activity in albino rat assessed as inhibition of carrageenan-induced paw edema by measuring mercury displacement at 20 mg/kg , po relative to control; type: functional
Candida albicans = experiment: Antifungal activity against Candida albicans ATCC 90028 assessed as reduction in fungal cell viability measured after 24 and 48 hrs by spectrophotometry; type: functional
Rattus norvegicus [2] = experiment: Antiinflammatory activity in Wistar albino rat assessed as inhibition of carrageenan-induced paw edema at 20 mg/kg , po incubated for 30 mins followed by carrageenan addition and measured after 3 hrs by plethysmometry relative to control; type: functional
Mus musculus [3] = experiment: Analgesic activity in Swiss albino mouse assessed as inhibition of acetic acid induced writhing at 20 mg/kg , po incubated for 3 hrs followed by acetic acid administered and observed for 5 to 15 mins relative to control; type: functional
Rattus norvegicus [4] = experiment: Antiinflammatory activity in Wistar rat assessed as inhibition of carrageenan-induced edema measured upto 4 hrs; type: functional
Rattus norvegicus [5] = species: Rattus norvegicus; experiment: Antiarthritic activity in adjuvant-induced Sprague-Dawley rat; type: functional
[6] = target: GABA-A receptor; anion channel; experiment: Displacement of [35S]TBPS from GABAA (unknown origin) incubated for 90 mins by scintillation counting method; type: protein-complex assay, Homo sapiens
Mus musculus [7] = experiment: Anticonvulsant activity in ip dosed CF-1 mouse assessed as protection against PTZ-induced seizures measured after 30 mins […]; type: functional
Salmonella typhimurium = experiment: Inhibition of biofilm formation in Salmonella enterica subsp. enterica serovar Typhimurium 14028S incubated for 48 hrs by crystal violet staining based assay; type: functional, organism-based
NIH3T3 = experiment: Cytotoxicity against mouse NIH/3T3 cells assessed as reduction in cell viability incubated for 48 hrs by SRB method; type: functional; details: NIH3T3, 48 h, read-out: ED50 (the source's name)
SK-OV-3 = experiment: Cytotoxicity against human SKOV3 cells assessed as reduction in cell viability incubated for 48 hrs by SRB method; type: functional; details: SK-OV-3, 48 h, read-out: ED50 (the source's name)
A549 = experiment: Cytotoxicity against human A549 cells assessed as reduction in cell viability incubated for 48 hrs by SRB method; type: functional; details: A549, 48 h, read-out: ED50 (the source's name)
[8] = tested on: Mycobacterium tuberculosis; experiment: Antimycobacterial activity against Mycobacterium tuberculosis H37Rv; type: functional, organism-based
Lichtheimia corymbifera = experiment: Antifungal activity against Absidia corymbifera assessed as reduction in fungal cell viability by broth dilution method; type: functional
Aspergillus fumigatus [9] = experiment: Antifungal activity against Aspergillus fumigatus assessed as reduction in fungal cell viability by broth dilution method; type: functional
Rattus norvegicus [10] = experiment: Antiinflammatory activity in po dosed Sprague-Dawley rat assessed as inhibition of carrageenan-induced paw edema incubated for one hour followed by carrageenan addition and measured after 3 hrs; type: functional
Aspergillus fumigatus [11] = experiment: Antifungal activity against Aspergillus fumigatus assessed as reduction in fungal cell viability measured after 24 and 48 hrs by broth microdilution method; type: functional
Phospholipase A2 = Phospholipase A2 (Apis mellifera, UniProt P00630); experiment: Inhibition of bee venom phospholipase A2 preincubated for 1 hr followed by addition of phosphotidylcholine and 1-palmitoyl-2-(1-14C) palmitoyl further incubated for 10 mins and measured after 15 secs by scintillation counting method
[12] = Ulcerogenicity in Wistar rat assessed as gastric lesions by measuring ulcer severity index at 60 mg/kg , po measured after 17 hrs relative to ibuprofen; type: toxicity, organism-based; details: in vivo
Escherichia coli = experiment: Antibacterial activity against Escherichia coli; type: functional
Staphylococcus aureus = experiment: Antibacterial activity against Staphylococcus aureus; type: functional
[13] = target: Prostaglandin G/H synthase 2 (Homo sapiens, UniProt P35354); experiment: Inhibition of recombinant human COX2 expressed in baculovirus infected Sf9 cells
[14] = Acute toxicity in Swiss albino mouse assessed as reduction in mortality of animal at 200 to 800 mg/kg , ip observed for 8 days; type: organism-based; details: in vivo
Rattus norvegicus [15] = experiment: Antiinflammatory activity in po dosed rat; type: functional

Sequence of Prostaglandin G/H synthase 2 (P35354 whole entry): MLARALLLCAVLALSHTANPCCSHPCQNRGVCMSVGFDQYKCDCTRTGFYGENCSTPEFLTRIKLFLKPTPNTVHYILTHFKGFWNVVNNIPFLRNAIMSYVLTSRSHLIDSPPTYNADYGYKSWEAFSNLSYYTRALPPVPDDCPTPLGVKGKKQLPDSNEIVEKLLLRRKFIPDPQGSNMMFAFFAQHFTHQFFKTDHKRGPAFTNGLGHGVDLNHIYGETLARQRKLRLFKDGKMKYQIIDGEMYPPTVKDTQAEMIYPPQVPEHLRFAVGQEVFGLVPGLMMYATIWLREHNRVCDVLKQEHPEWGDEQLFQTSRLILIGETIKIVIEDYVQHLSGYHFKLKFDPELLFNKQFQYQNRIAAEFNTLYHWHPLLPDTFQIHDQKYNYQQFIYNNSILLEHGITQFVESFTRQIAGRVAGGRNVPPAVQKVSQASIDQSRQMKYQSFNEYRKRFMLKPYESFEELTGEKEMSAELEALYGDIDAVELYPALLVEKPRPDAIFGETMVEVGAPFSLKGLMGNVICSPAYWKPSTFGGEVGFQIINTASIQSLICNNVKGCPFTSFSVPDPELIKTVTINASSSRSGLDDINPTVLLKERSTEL
Sequence of Phospholipase A2 (P00630 whole entry): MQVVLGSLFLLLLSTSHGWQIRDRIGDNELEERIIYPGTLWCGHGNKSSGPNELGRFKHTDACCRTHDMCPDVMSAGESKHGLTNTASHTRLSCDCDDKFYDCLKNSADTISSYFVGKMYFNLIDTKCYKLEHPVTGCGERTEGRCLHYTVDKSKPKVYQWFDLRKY

COc1cc(/C=C2/C=C(c3ccc(C)cc3)OC2=O)cc(OC)c1OC
inhibition in vivo at 20 mg/kg (Rattus norvegicus [1]): 45.2%

CC(=O)OCC1C=C(c2ccc(Cl)c(Cl)c2)C(=O)O1 (stereo not drawn)
MIC (Candida albicans): 2 µg/mL (≈ 6.64 µM)

O=C1OC(c2ccc3ccccc3c2)=C/C1=C\c1ccc([N+](=O)[O-])cc1
inhibition in vivo at 20 mg/kg (Rattus norvegicus [2]): 74.8 to 89.7% | inhibition in vivo at 20 mg/kg (Mus musculus [3]): 70 to 74%

Cc1ccc2cc(/C=C3\C=C(c4ccc5ccccc5c4)OC3=O)c(Cl)nc2c1
inhibition (INH) (Rattus norvegicus [4]): 56 - 63%

Cc1ccc(-c2cc(C(F)(F)F)nn2-c2ccc(S(N)(=O)=O)cc2)cc1 [CELECOXIB]
ED50 (Rattus norvegicus [5]): 0.2 mg/kg/day

CC(C1CCOC1=O)C(F)(F)F (stereo not drawn)
IC50 [6]: 142 µM | CD50 (Mus musculus [7]): 30 mg/kg

CC(=O)OCC1C=C(c2ccc(Br)cc2)C(=O)O1 (stereo not drawn)
MIC (Candida albicans): 0.5 µg/mL (≈ 1.61 µM)

O=C1C=C/C(=C/Br)O1
IC50 (Salmonella typhimurium): 15 µM

COc1cc(/C=C2\C=CC(=O)O2)c(OC)c2c1C(=O)c1ccccc1C2=O
EC50 (NIH3T3): 9.2 to 16.5 µg/mL (≈ 25.4 to 45.5 µM) | EC50 (SK-OV-3): 9.2 to 16.5 µg/mL (≈ 25.4 to 45.5 µM) | EC50 (A549): 9.2 to 16.5 µg/mL (≈ 25.4 to 45.5 µM)

O=C1OC(c2ccc3ccccc3c2)=C/C1=C\c1cc2ccccc2nc1Cl
inhibition (INH) (Rattus norvegicus [4]): 56 - 63%

CC(=O)OCC1C=C(c2cccc(Cl)c2)C(=O)O1 (stereo not drawn)
MIC (Candida albicans): 1 µg/mL (≈ 3.75 µM)

COc1cc(/C=C2\C=C(c3cccc(Br)c3)OC2=O)ccc1OC(C)=O
IC50 [8]: 5.05 µg/mL (≈ 12.2 µM) | IC90 [8]: 7.85 µg/mL (≈ 18.9 µM)

CC(=O)N1CCN(c2ccc(OCC3COC(Cn4ccnc4)(c4ccc(Cl)cc4Cl)O3)cc2)CC1 (stereo not drawn) [KETOCONAZOLE]
MIC (Lichtheimia corymbifera): 16.6 µg/mL (≈ 31.2 µM) | MIC (Aspergillus fumigatus [9]): 16.6 µg/mL (≈ 31.2 µM)

CC1(C)OC(=O)C(Oc2ccc(Br)cn2)=C1c1ccc(S(C)(=O)=O)cc1
ED50 (Rattus norvegicus [10]): 0.86 mg/kg | ED50 (Rattus norvegicus [5]): 0.2 mg/kg

C[C@@H]1[C@H](O)[C@@H](C)/C=C/C=C/C=C/C=C/C=C/C=C/C=C/[C@H](O[C@@H]2O[C@H](C)[C@@H](O)[C@H](N)[C@@H]2O)C[C@@H]2O[C@](O)(C[C@@H](O)C[C@@H](O)[C@H](O)CC[C@@H](O)C[C@@H](O)CC(=O)O[C@H]1C)C[C@H](O)[C@H]2C(=O)O [AMPHOTERICIN B]
MIC (Aspergillus fumigatus [11]): 0.5 µg/mL (≈ 0.541 µM)

O=C1C=CC(=C(Br)Br)O1
IC50 (Salmonella typhimurium): 15 µM

O=C1C=C/C(=C\c2cccc([N+](=O)[O-])c2)O1
EC50 (NIH3T3): 5.9 to 21 µg/mL (≈ 27.2 to 96.7 µM) | EC50 (SK-OV-3): 5.9 to 21 µg/mL (≈ 27.2 to 96.7 µM) | EC50 (A549): 5.9 to 21 µg/mL (≈ 27.2 to 96.7 µM)

CC(C)(C)C(=O)OC(CCCCCCCCCCCCC(OC(=O)C(C)(C)C)C1=CC(=O)OC1OC(=O)Nc1ccccc1)C1=CC(=O)OC1OC(=O)Nc1ccccc1 (stereo not drawn)
IC50 (Phospholipase A2): > 1 µM

CC(C)Cc1ccc(C2=C/C(=C\c3ccccc3Cl)C(=O)O2)cc1
UI [12]: 0.2

O=C1C=C(Br)/C(=C/Br)O1
IC50 (Salmonella typhimurium): 10 µM

O=C1OC(c2ccc3ccccc3c2)=C/C1=C\c1ccccc1[N+](=O)[O-]
inhibition in vivo at 20 mg/kg (Rattus norvegicus [2]): 74.8 to 89.7% | inhibition in vivo at 20 mg/kg (Mus musculus [3]): 70 to 74%

O=C1OC(c2ccc3ccccc3c2)=C/C1=C\c1cc2ccc(Cl)cc2nc1Cl
inhibition (INH) (Rattus norvegicus [4]): 56 - 63%

C/C(C#N)=C1/OC(c2ccc(C)cc2)=C(Cl)C1=O
MIC (Escherichia coli): 62.5 µg/mL (≈ 241 µM) | MIC (Staphylococcus aureus): 15.6 µg/mL (≈ 60.1 µM)

Cc1ccc2c(c1)C1=C(c3ccc(S(C)(=O)=O)cc3)C(=O)OC1CC2 (stereo not drawn)
IC50 [13]: 0.5 to 0.6 µM

COc1cc(C2OC(=O)CC2C(C)=O)cc(OC)c1O (stereo not drawn)
LD50 at 192 h [14]: 200 mg/kg

CC1(O)OC(=O)C(c2ccc(Cl)cc2)=C1c1ccc(S(C)(=O)=O)cc1 (stereo not drawn)
ED50 (Rattus norvegicus [15]): 1.4 mg/kg

O=C1OCCC1CC(F)(F)F (stereo not drawn)
IC50 [6]: 105 µM | CD50 (Mus musculus [7]): 30 mg/kg

COc1cc(/C=C2/C=C(c3ccc(C)cc3C)OC2=O)cc(OC)c1OC
inhibition in vivo at 20 mg/kg (Rattus norvegicus [1]): 48.4%

COc1ccc(/C=C2\C=C(c3ccc4ccccc4c3)OC2=O)cc1
inhibition in vivo at 20 mg/kg (Rattus norvegicus [2]): 74.8 to 89.7% | inhibition in vivo at 20 mg/kg (Mus musculus [3]): 70 to 74%

O=C1C=C(c2ccc(Cl)cc2)O/C1=N\C12CC3CC(CC(C3)C1)C2
MIC (Escherichia coli): 7.8 µg/mL (≈ 22.8 µM)
